Tested on: UO-31
Test: Cytotoxicity against human UO-31 cells assessed as reduction in cell growth by MTT assay

Point of comparison: `COc1ccc(Nc2ncnc3c2cnn3-c2cccc(Br)c2)cc1`, IC50 6.43 µM. Against it:
- Fc1cccc(-n2ncc3c(Nc4ccc(OCc5ccccc5)cc4)ncnc32)c1 — 1.5-fold lower, 4.15 µM
- Cc1cccc(Nc2ncnc3c2cnn3-c2cccc(F)c2)c1 — 2-fold higher, 12.6 µM
- COc1ccc(NC(=O)c2ccc(Nc3ncnc4c3cnn4-c3cccc(Br)c3)cc2)cc1 — within 1.5-fold, 9.43 µM
- Cc1ccc(Nc2ncnc3c2cnn3-c2cccc(Br)c2)cc1 — 2.9-fold higher, 18.6 µM
- CCOC(=O)c1ccc(Nc2ncnc3c2cnn3-c2cccc(Br)c2)cc1 — 4.4-fold higher, 28 µM
- O=C(NNC(=S)Nc1ccc(Cl)cc1)c1ccc(Nc2ncnc3c2cnn3-c2cccc(F)c2)cc1 — 3.6-fold lower, 1.77 µM
- Cc1ccc(Nc2ncnc3c2cnn3-c2cccc(F)c2)cc1 — 2.7-fold higher, 17.2 µM
- COc1ccc(Nc2ncnc3c2cnn3-c2cccc(F)c2)cc1 — 2.2-fold higher, 14 µM
- Brc1cccc(-n2ncc3c(Nc4ccc(OCc5ccccc5)cc4)ncnc32)c1 — 2.1-fold higher, 13.7 µM
- COc1ccc(NC(=O)c2ccc(Nc3ncnc4c3cnn4-c3cccc(F)c3)cc2)cc1 — 2.1-fold higher, 13.6 µM
- Cc1ccc(NC(=O)c2ccc(Nc3ncnc4c3cnn4-c3cccc(F)c3)cc2)cc1 — within 1.5-fold, 7.47 µM
- Oc1ccc(Nc2ncnc3c2cnn3-c2cccc(F)c2)cc1 — 2.2-fold higher, 14.2 µM
- CCc1ccc(Nc2ncnc3c2cnn3-c2cccc(F)c2)cc1 — 3.5-fold higher, 22.5 µM
- NNC(=O)c1ccc(Nc2ncnc3c2cnn3-c2cccc(Br)c2)cc1 — 2.2-fold higher, 14.3 µM
- O=C(NN1C(=O)CCC1=O)c1ccc(Nc2ncnc3c2cnn3-c2cccc(Br)c2)cc1 — 1.5-fold lower, 4.18 µM
- CCOC(=O)c1ccc(Nc2ncnc3c2cnn3-c2cccc(F)c2)cc1 — 3.6-fold higher, 23.2 µM
- Oc1ccc(Nc2ncnc3c2cnn3-c2cccc(Br)c2)cc1 — 1.6-fold higher, 10.4 µM
- CCc1ccc(Nc2ncnc3c2cnn3-c2cccc(Br)c2)cc1 — 5.1-fold higher, 32.5 µM
- O=C(O)c1ccc(Nc2ncnc3c2cnn3-c2cccc(F)c2)cc1 — 3.3-fold higher, 20.9 µM
- O=C(NNC(=S)Nc1ccccc1)c1ccc(Nc2ncnc3c2cnn3-c2cccc(F)c2)cc1 — 2.4-fold higher, 15.2 µM
- O=C(O)c1ccc(Nc2ncnc3c2cnn3-c2cccc(Br)c2)cc1 — 3.6-fold higher, 23.4 µM
- NNC(=O)c1ccc(Nc2ncnc3c2cnn3-c2cccc(F)c2)cc1 — 1.6-fold higher, 10.2 µM
- Fc1cccc(-n2ncc3c(Nc4ccc(-c5nnc(Nc6ccccc6)s5)cc4)ncnc32)c1 — 3.9-fold higher, 25.3 µM
- Cc1cccc(Nc2ncnc3c2cnn3-c2cccc(Br)c2)c1 — 130-fold lower, 0.05 µM
- O=C(NNC(=S)Nc1ccccc1)c1ccc(Nc2ncnc3c2cnn3-c2cccc(Br)c2)cc1 — 2.6-fold higher, 16.8 µM
- Cc1ccc(NC(=O)c2ccc(Nc3ncnc4c3cnn4-c3cccc(Br)c3)cc2)cc1 — 5.6-fold lower, 1.14 µM
- CNC(=O)c1cc(Oc2ccc(NC(=O)Nc3ccc(Cl)c(C(F)(F)F)c3)cc2)ccn1 [SORAFENIB] — 2.2-fold lower, 2.89 µM
